How the values were obtained:
Format in all cases: in vivo
[1] = system: white mice injected with nikethamide; assay: Anticonvulsant effect after nikethamide injection
Experimental: (§1) In the test, the white mice were randomly divided into 4 batches, each batch having 10 animals: Batch 1 (biological control) was subjected to oral administration of 20 mL/kg/day distilled water; batch 2 (positive control) was subjected to oral administration of 2.4 mg/kg/day diazepam; batch 3 was subjected to oral administration of the composition at dose of 0.96 pill/kg/day (equivalent to the clinical dose); batch 4 was subjected to oral administration of the composition at dose of 2.88 pill/kg/day (3 times as much as the clinical dose). After the mice were injected with nikethamide, the time of convulsion onset and the death time of the mice were taken.

white mice = assay: Sedative effect on the advanced plus model (close/open branch)
Experimental: as §1, with “dose).” for “dose). After the mice were injected with nikethamide, the time of convulsion onset and the death time of the mice were taken.”

[2] = system: white mice injected with nitroglycerin (NTG), chronic migraine model; assay: Vasomotor pain relieving effect on chronic migraine model (nitroglycerin injection, dolorimeter); conditions: oral 40 mg/kg propranolol, NTG 10 mg/kg
Experimental: In the test, the white mice were randomly divided into 5 batches, each batch having 10 animals: Batch 1 (biological control) was subjected to oral administration of 0.2 ml/10 g water; batch 2 (model) injected 10 mg/kg with nitroglycerin (NTG) was subjected to oral administration of 0.2 mL/10 g water; batch 3 (positive control) injected with 10 mg/kg nitroglycerin was subjected to oral administration of 40 mg/kg propranolol; batch 4 injected with 10 mg/kg nitroglycerin was subjected to oral administration of the composition at dose of 0.96 pill/kg/day (equivalent to the clinical dose); batch 5 injected with 10 mg/kg nitroglycerin was subjected to oral administration of the composition at dose of 2.88 pill/kg/day (3 times as much as the clinical dose).

[3] = After 7 days of oral administration of the drug, Diazepam at 2.4 mg/kg/day
[4] = Before oral administration of the drug, Diazepam at 2.4 mg/kg/day batch

CN1C(=O)CN=C(c2ccccc2)c2cc(Cl)ccc21 [Diazepam, diazepam]
Effect on time of convulsion onset and death time vs model batch ([1]; 2.4 mg/kg/day diazepam, after nikethamide injection): took effects in prolonging the time of convulsion onset and the death time
Death time of the mice after nikethamide injection ([1]; Diazepam at 2.4 mg/kg/day oral): 14.91 ± 3.67 min
Time of convulsion onset ([1]; Diazepam at 2.4 mg/kg/day oral, after nikethamide injection): 2.08 ± 0.55 min
Avoidance rate at the open branch (white mice; [3]): 46.37 ± 9.21
Number of times of mouse introduction into the close branch (white mice; [3]): 6.40
Number of times of mouse introduction into the open branch (white mice; [3]): 6.90
Time of mouse introduction into the close branch (white mice; [3]): 121.20 s
Time of mouse introduction into the open branch (white mice; [3]): 150.10 s
Avoidance rate at the open branch (white mice; [4]): 69.21 ± 8.88
Number of times of mouse introduction into the close branch (white mice; [4]): 11.50
Number of times of mouse introduction into the open branch (white mice; [4]): 4.30
Time of mouse introduction into the close branch (white mice; [4]): 173.70 s
Time of mouse introduction into the open branch (white mice; [4]): 90.40 s

CC(C)NCC(O)COc1cccc2ccccc12 (centres unmarked) [Propranolol, propranolol]
Pain-inducing force in the dolorimeter (baseline pain threshold) ([2]; Day 3): 7.6 ± 1.5 g
Pain-inducing force on the dolorimeter (pain threshold after treatment) ([2]; Day 3): 6.8 ± 1.2 g
Pain-inducing force in the dolorimeter (baseline pain threshold) ([2]; Day 5): 6.5 ± 1.1 g
Pain-inducing force on the dolorimeter (pain threshold after treatment) ([2]; Day 5): 7.0 ± 1.0 g
Pain-inducing force in the dolorimeter (baseline pain threshold) ([2]; Day 7): 6.4 ± 1.0 g
Pain-inducing force on the dolorimeter (pain threshold after treatment) ([2]; Day 7): 6.7 ± 0.5 g
Pain-inducing force in the dolorimeter (baseline pain threshold) ([2]; Day 9): 7.1 ± 0.9 g
Pain-inducing force on the dolorimeter (pain threshold after treatment) ([2]; Day 9): 6.7 ± 0.5 g
Pain-inducing force in the dolorimeter (baseline pain threshold) ([2]; Day 11): 7.1 ± 1.0 g
Pain-inducing force on the dolorimeter (pain threshold after treatment) ([2]; Day 11): 7.8 ± 0.7 g

Source: patent US12440527B2, “Organic sol-gel nano-composition from panax notoginseng, rutin, ginkgo biloba effective in enhancing cerebral and cardiovascular protection and method of producing thereof” (priority 2020, dated 2025)
